In article PMC12428754, “Testing Strategies for Metabolite-Mediated Neurotoxicity” (International Journal of Molecular Sciences, 2025):
Read-outs that look alike come from different tables or passages of the source.

Key:
LUHMES cells = assay: MitoMet (UKN4b) neurite outgrowth assay; format: cell-based, human; details: for IC25: read-out: BMC25 neurite outgrowth; for fold change between BMC25 values of parent and metabolite (potency ratio, parent divided by metabolite): listed under the metabolite, >1 = metabolite more potent
Procedure: Figure 1 (A) A strategy scheme to assess metabolite-mediated hazard in NAMs used for neurotoxicity or developmental neurotoxicity. Parent and metabolite compounds are tested separately in the respective assay. This strategy is applicable when there is prior knowledge of metabolite formation. A decision rule based on the relative toxicities (X) of the parent and metabolite may be applied to decide whether next-generation risk assessment (NGRA) should be applied to the metabolite. The value of X may be defined according to the problem formulation and the NAM used. (B) An assay scheme of the neurite outgrowth assay used here for exemplification: Proliferating LUHMES cells were replated one day before differentiation was initiated (day −1). After two days (day 2) in differentiation medium, the cells were replated into assay format (96-well). At this point, neurite growth was re-initiated. The cells were treated with toxicants 1 h after replating. Neurite outgrowth and viability were determined 24 h later, using automated high content imaging. (C) Comparison of neurite outgrowth of cultures treated with bromethalin and desmethyl-bromethalin one exemplary parent/metabolite pair (chemical structures shown). […] The curves are based on data from three independent experiments and were fitted using a four-parameter Hill function. Data points shown are arithmetic means of data from independent experiments ±SEM. In each independent experiment, the technical replicates were measured and averaged. A benchmark response (BMR) of 25% was used as specified in the detailed assay description, and the respective benchmark concentration (BMC25) was determined. […] (D) Microscopic images of calcein-stained LUHMES cells. Similar images are used for neurite quantification. Treatment with 40 nM of the parent (left) or metabolite (right). The scale bar in orange corresponds to 50 µm. […] It stands under panel C and to the right of panel D, and was assigned to C.
The MitoMet neurite outgrowth assay was performed as previously described. In brief, all cell culture dishes and flasks were pre-coated with 50 μg/mL poly-l-ornithine (PLO) and 1 μg/mL fibronectin. Proliferating LUHMES cells were maintained in AdvDMEM/F12 containing L-glutamine (2 mM), N2 supplement (1x), and FGF (40 ng/mL). For pre-differentiation, the cells were replated at a density of 46,000 cells/cm^2 one day prior to the induction of differentiation (defined as the day of differentiation, Day −1). Differentiation was initiated by exchanging the culture medium for AdvDMEM/F12 supplemented with L-glutamine (2 mM), N2 supplement (1x), dibutyryl-cAMP (1 mM), tetracycline (1 µg/mL), and GDNF (2 ng/mL). After two days of differentiation (Day 2), the cells were replated (100,000 cells/cm^2) into 96-well plates. The final assay medium consisted of glucose-free AdvDMEM/F12 supplemented with galactose (18 mM), L-glutamine (2 mM), and tetracycline (1 µg/mL). One hour after replating, the cells were treated with a 10× concentrated stock solution of the test compound. Neurite outgrowth and viability were determined 24 h later, using automated high content imaging.
The image acquisition and analysis were conducted according to established protocols. The cells were stained with Hoechst H-33342 (1 µg/mL) to visualise nuclei and calcein-AM (1 µM) to label viable cell structures. Fluorescent images were acquired using an automated imaging system.

[1] = for metabolite formation over time: samples every 30 min for 2 h
Procedure: Parent compounds were incubated at final concentrations of either (a) 5 µM or (b) 50 µM (for chlorfenapyr) with pooled human liver microsomes (HLM; mixed gender, n = 150; BioIVT; West Sussex, UK) at corresponding protein concentrations of (a) 0.52 mg/mL or (b) 5.2 mg/mL. Incubations were performed in the absence or presence of NADPH at final concentrations of (a) 1 mM or (b) 10 mM, respectively, using a thermostated orbital shaker at 37 °C and 150 rpm. Reactions were terminated at designated time points by the addition of acetonitrile/methanol (3:1, v/v). Samples were then centrifuged at 10,000× g for 10 min, and the resulting supernatants were analysed by LC-MS/MS.
All analytes were measured using an Acquity UPLC H-Class system coupled to a Xevo TQ-S micro mass spectrometer (Waters). Chromatographic separation was performed on an Acquity UPLC BEH C18 column (2.1 × 50 mm, 1.7 µm) with a mobile phase consisting of 0.1% formic acid in water (A) and acetonitrile (B). Unless otherwise stated, the column was maintained at 30 °C and operated at a flow rate of 0.4 mL/min. The standard gradient was 95% A from 0 to 1.0 min, decreased to 2% A by 1.5 min, held until 4.0 min, returned to 95% A at 4.3 min, and held until 5.0 min. […] The mass spectrometer operated in electrospray ionisation (ESI) mode. Compound-specific MRM transitions, cone voltages, and collision energies for all analytes are listed in Supplementary Table S2.
Int. J. Mol. Sci. 2025, 26, x FOR PEER REVIEW 3 of 5
Supplementary Figure S3: Quantification of specific metabolite formation from selected parent/metabolite pairs in a human liver microsomes (HLM) assay. Parent compounds (PAR) were incubated at a concentration of 5 µM (50 µM for chlorfenapyr) with HLM in the absence (dashed line, open symbols) or presence of NADPH (solid lines, closed symbols). Samples were taken every 30 min for 2 h (+NADPH) or at 2 h only (- NADPH). The remaining fraction of the PAR was quantified for each sample. Additionally, one key metabolite (MET) was measured. Its amount is expressed as fraction of PAR converted to MET, assuming an equimolar PAR to MET reaction, 100 % indicates a complete conversion. The middle-dashed line indicates a metabolite formation of at least 10% of PAR. Data are means of two measurements n.d. = not detected.
(1 picture or pasted object on this page, not shown here)

[2] = Homo sapiens, benchmark response 25%, neurite area, 24 h exposure, three independent experiments
[3] = human liver microsomes, listed under the metabolite

## O=C(c1ccccc1)c1ccc(O)cc1 [4-Hydroxybenzophenone]
LUHMES cells; [2]
  IC25: 78000 nM
LUHMES cells
  fold change between BMC25 values of parent and metabolite (potency ratio, parent divided by metabolite): > 6 fold
[1]; human liver microsomes, result in words
  extent of metabolite formation: only trace amounts
[1]; [3]
  metabolite formation over time: time-dependent increase in metabolite formation

## CN(c1c(Br)cc(Br)cc1Br)c1c([N+](=O)[O-])cc([N+](=O)[O-])cc1C(F)(F)F [Bromethalin]
LUHMES cells; Homo sapiens, 24 h
  IC25: 790 nM
LUHMES cells; benchmark response 25%, neurite area, 24 h exposure, three independent experiments
  IC25: 790 nM

## CCOCn1c(-c2ccc(Cl)cc2)c(C#N)c(Br)c1C(F)(F)F [Chlorfenapyr]
LUHMES cells; [2]
  IC25: > 10000 nM

## N#Cc1c(-c2ccc(Cl)cc2)[nH]c(C(F)(F)F)c1Br [Tralopyril]
LUHMES cells; [2]
  IC25: 350 nM
LUHMES cells
  fold change between BMC25 values of parent and metabolite (potency ratio, parent divided by metabolite): > 29 fold
[1]; human liver microsomes ± NADPH, result in words
  cofactor (NADPH) dependence of metabolite formation: clearly dependent on NADPH
[1]; [3]
  metabolite formation over time: time-dependent increase in metabolite formation
[1]; human liver microsomes, up to 2 h, listed under the metabolite
  conversion rate of parent to metabolite: approximately 10%
